Test results taken from patent US20170184612A1, “USE OF LEUKOCYTES AND NOVEL BIOMARKERS IN THE DIAGNOSIS, CONFIRMATION, AND TREATMENT OF A NEUROLOGICAL DISORDER” (The Trustees of Columbia University in the City of New York, priority 2014, published 2017).

Columns and labels:
[1] = tested on: peripheral blood mononuclear cells (PBMC), T cells; experiment: ELISpot assay, gamma-interferon release (SFC) after stimulation with a-synuclein epitope pools; type: cell-based, human; settings: for Pool +: IFNg, Pool Stimulated, number of donors with a positive response, Donors tested 1
Description: (§1) Blood from age matched controls and PD patients were obtained and mononuclear cells were isolated by gradient centrifugation.
(§2) Release of the cytokines gamma-interferon, which measures activation of CD4+ and/or CD8+ T cells, and the interleukin, IL-5, which measures activation of CD4+ T cells was measured by ELISpot assay. […] After 22 hours of stimulation at 37 C, the cells were removed and release of cytokines was measured by colorimetric detection of spot-forming cells (SFC). Confirmed release of cytokine is determined by the presence of a minimum of 20 SFC per million cells.
(§3) The binding algorithms in SubAim 1 predict how well the peptides would bind to MHC if present, but not if they are present in patients. To determine this, the presence of T cell response against the candidate antigens by patient blood-derived peripheral blood mononuclear cells (PBMC) is assessed by ELISPOT assays upon stimulation with the peptides. This assay detects and quantifies cytokine release (in this case, IFNγ and IL-5) from specific activated T cells.
(§4) Data were obtained from blood samples (25 ml) from 44 PD patients and 24 age-matched controls. The experiments were conducted blindly. PBMCs from these samples were isolated and exposed to pools comprising the 122 candidate class I and class II antigens and phosphorylated S129 epitopes generated in Subaim 1. For the PBMCs responsive to the pooled peptides, the response was then deconvoluted to identify individual epitopes.
(§5) PMBC fractions are recovered by standard methods with Ficoll gradient and T cells expansion (Oseroff et al., 2010). The methods for the analysis of T cell reactions and measurement of cytokines production using the enzyme-linked immunosorbent spot (ELISPOT) assay are published in analogous experiments to discover antigens in multiple sclerosis (Lolli et al., 2013) and in hay fever allergens (Oseroff et al., 2010). T cell responses are determined by measuring IFNγ and IL-5 release by ELISPOT. Statistical analysis of differences between populations is expected to be non-parametric and analyzed with the U-Mann-Whitney test. If there were a normal distribution of response, which is a priori unlikely as some patients have no T cell response, with an SD=1, 8 patients per group would be required to provide a p>90% that the study detect a >2 fold difference at a two-sided 0.05 significance level.

[2] = tested on: peripheral blood mononuclear cells (PBMC), T cells; experiment: ELISpot assay, IL-5 release (SFC) after stimulation with a-synuclein epitope pools; type: cell-based, human
Description: as §1, §2, §3, §4, §5

[3] = Patients Summary, PD patients, of donors tested (peptide)
[4] = Patients Summary, PD patients, single peptide
[5] = number of donors positive to the single peptide, second 'Pool Stimulated' section (from r296), 12 donors tested
[6] = peptide + / donors tested (peptide), second 'Pool Stimulated' section (from r296), 12 donors tested
[7] = single peptide, second 'Pool Stimulated' section (from r296), 12 donors tested
[8] = pool 'Phospho' (phosphorylated peptides)
[9] = Patients Summary, Phospho pool peptides
[10] = Patients Summary, Phospho pool peptides, 10 donors tested
[11] = peptides of pool 'Poshpho', 8 donors tested
[12] = peptides of pool 'Poshpho', 8 donors tested, number of donors positive

Substance | Pool + [1] | IFNg Peptide + (donors positive to the peptide) [1, 3] | IFNg Response Frequency [1, 4] | IFNg Total SFC [1, 4] | IFNg Peptide + [1, 5] | IFNg Response Frequency [1, 6] | IL-g Peptide + (donors positive to the peptide) [2, 3] | IL-g Response Frequency [2, 4] | IL-g Total SFC [2, 4] | IL-g Peptide + [2, 5] | IL-g Response Frequency [2, 6] | IL-g Total SFC [2, 7] | IFNg Total SFC [1, 7] | IL-g Avg SFC [2, 4] | further results
3521.0001 (PVDPDNEAY; listed as Homo sapiens) | 0 | 0 | 0% | 0 SFC | 0 | 0% | 0 | 0% | 0 SFC | 0 | 0% | 0 SFC | – | – | –
3521.002 (AGKTKEGVL; listed as Homo sapiens) | 0 | 1 | 13% | 98 SFC | 0 | 0% | 1 | 13% | 106 SFC | 0 | 0% | 0 SFC | 0 SFC | 106 SFC | IFNg Avg SFC [1, 4]: 98 SFC
3521.0002 (PSEEGYQDY; listed as Homo sapiens) | 0 | 0 | 0% | 0 SFC | 0 | 0% | 0 | 0% | 0 SFC | 0 | 0% | 0 SFC | – | – | Pool + [1, 8]: 0; IFNg Avg SFC [1, 9]: 460 SFC; IFNg Response Frequency [1, 9]: 10%; IFNg Total SFC [1, 9]: 460 SFC; IFNg Peptide + (donors positive to the peptide) [1, 10]: 1; IFNg Response Frequency [1, 11]: 0%; IFNg Total SFC [1, 11]: 0 SFC; IFNg Peptide + [1, 12]: 0; IL-g Response Frequency [2, 9]: 0%; IL-g Total SFC [2, 9]: 0 SFC; IL-g Peptide + (donors positive to the peptide) [2, 10]: 0; IL-g Response Frequency [2, 11]: 0%; IL-g Total SFC [2, 11]: 0 SFC; IL-g Peptide + [2, 12]: 0
3521.003 (GSIAAATGFV; listed as Homo sapiens) | 0 | 0 | 0% | 0 SFC | 0 | 0% | 1 | 25% | 40 SFC | 0 | 0% | 0 SFC | 0 SFC | 40 SFC | –
3521.0003 (SIAAATGFV; listed as Homo sapiens) | 0 | 0 | 0% | 0 SFC | 1 | 50% | 0 | 0% | 0 SFC | 0 | 0% | 0 SFC | 33.3 SFC | – | IFNg Avg SFC [1, 7]: 33.3 SFC
3521.004 (DNEAYEMPSE; listed as Homo sapiens) | 0 | 0 | 0% | 0 SFC | 0 | 0% | 0 | 0% | 0 SFC | 0 | 0% | 0 SFC | – | – | Pool + [1, 8]: 0; IFNg Avg SFC [1, 9]: 364 SFC; IFNg Response Frequency [1, 9]: 20%; IFNg Total SFC [1, 9]: 727 SFC; IFNg Peptide + (donors positive to the peptide) [1, 10]: 2; IFNg Response Frequency [1, 11]: 0%; IFNg Total SFC [1, 11]: 0 SFC; IFNg Peptide + [1, 12]: 0; IL-g Avg SFC [2, 9]: 203 SFC; IL-g Response Frequency [2, 9]: 20%; IL-g Total SFC [2, 9]: 406.3 SFC; IL-g Peptide + (donors positive to the peptide) [2, 10]: 2; IL-g Response Frequency [2, 11]: 0%; IL-g Total SFC [2, 11]: 0 SFC; IL-g Peptide + [2, 12]: 0
3521.005 (APGKTKEGVL; listed as Homo sapiens) | 0 | 1 | 13% | 44 SFC | 0 | 0% | 2 | 25% | 137 SFC | 0 | 0% | 0 SFC | 0 SFC | 67.5 SFC | IFNg Avg SFC [1, 4]: 44 SFC
3521.0005 (AVVTGVTAV; listed as Homo sapiens) | 0 | 0 | 0% | 0 SFC | 0 | 0% | 0 | 0% | 0 SFC | 0 | 0% | 0 SFC | 0 SFC | – | –
3521.006 (VATVAEKTKE; listed as Homo sapiens) | 1 | 0 | 0% | 0 SFC | 0 | 0% | 0 | 0% | 0 SFC | 0 | 0% | 0 SFC | 0 SFC | – | –
3521.0006 (VLYVGSKTK; listed as Homo sapiens) | 0 | 5 | 83% | 1519 SFC | – | – | 2 | 33% | 168 SFC | – | – | – | – | 84 SFC | IFNg Avg SFC [1, 4]: 304 SFC
3521.0007 (AAATGFVKK; listed as Homo sapiens) | 0 | 0 | 0% | 0 SFC | 0 | 0% | 0 | 0% | 0 SFC | 0 | 0% | 0 SFC | 0 SFC | – | –
3521.0008 (IAAATGFVK; listed as Homo sapiens) | 0 | 0 | 0% | 0 SFC | 0 | 0% | 1 | 25% | 177 SFC | 0 | 0% | 0 SFC | 0 SFC | 177 SFC | –
3521.0009 (LYVGSKTKK; listed as Homo sapiens) | 0 | 2 | 33% | 326 SFC | – | – | 1 | 17% | 559 SFC | – | – | – | – | 559 SFC | IFNg Avg SFC [1, 4]: 163 SFC
3521.0011 (QVTNVGGAV; listed as Homo sapiens) | 0 | 0 | 0% | 0 SFC | 0 | 0% | 0 | 0% | 0 SFC | 0 | 0% | 0 SFC | 0 SFC | – | –
352100.45 (KTKKGVVHGV; listed as Homo sapiens) | 0 | – | – | – | – | – | – | – | – | – | – | – | – | – | –
